Assays:
[1] = biological target: T1, C-terminal domain (CTD) of human STING (Homo sapiens, UniProt Q86WV6); assay: STING binding FP assay I; parameters: recombinant human STING protein (155-379); details: 35 nM STING, 4 nM Probe 1
Procedure: (§1) The interaction between molecules and the C-terminal domain (CTD) of human STING was evaluated using a competition binding assay. In this assay, recombinant human STING protein (155-379) and a STING binding fluorescent probe were employed. Upon binding of the probe to STING, the rotation of the fluorescent probe is slowed due to the larger molecular size of the protein-bound complex. As a result, emitted light retains its plane of polarization, leading to an increase in fluorescence polarization. Molecules competing for the probe binding site displace the probe, which leads to rapid randomization of the polarization plane of the emitted light and a subsequent decrease in measured fluorescence polarization signal. Change in polarization was measured, allowing a comparative evaluation of the binding affinities of different compounds to the target protein.
(§2) The assay was performed in 96-well plates (ThermoFisher, cat.# 237108) containing 100µl : 10 µL test compound in 10% DMSO and buffer A (150 mM NaCl, 50 mM HEPES pH 7.5, 1 mM DTT) + 90 µL prepared master mix solution of: 4 nM fluorescein-labelled STING ligand (Probe 1; synthesis described above) in buffer A + 0.055% Tween-20 (v/v) and 35 nM STING in buffer A. Post mixing, plates were agitated at 600rpm and incubated for 20 min at room temperature. Subsequent measurements of the fluorescence polarization signal were made on a BioTek Synergy-H1 plate reader, using a polarization filter; Exc: 485/20 nm, Em: […]) with a gain-setting of 75. IC50 values were determined using a standard non-linear regression four-parameter curve fit in Graphpad Prism.

[2] = biological target: T1, C-terminal domain (CTD) of human STING; assay: STING binding FP assay II; parameters: recombinant human STING protein (155-379); details: 7 nM STING
Procedure: as §1, §2
The procedure for STING binding FP assay II is the same as described for STING binding FP assay I, except for a lower STING concentration. In STING binding FP assay II, a concentration of 7 nM STING in buffer A was used.

STING [3] = biological target: T2, STING (Homo sapiens, UniProt Q86WV6); assay: Western Blot analysis for S1 STING ligand antagonism in primary human skin fibroblasts; format: cell-based; parameters: host or cells: HFF-1 human foreskin fibroblasts; details: 5 µM; 2 h or 1 h before, simultaneously with, or 15 minutes after 0.3 µM diABZI
Procedure: To assess whether S1 STING ligands inhibit STING activation, primary human skin fibroblasts (Figure 5) or HFF-1 cells (Figure 6) were treated with various compounds which comprise only an S1 ligand domain and a Linker domain before undergoing Western Blot analysis as described below. Compounds A9, A11, A26 and A30 used in the following experiments share a common S1 ligand, which is also shared by Example compounds 1, 3, 5-29, 33-38.
Cells were incubated with A9 or A11 for 1 or 2 hours before addition of diABZI c3, treated with test compound and diABZI c3 simultaneously, or treated with A9 or A11 after 15 minutes incubation with diABZI c3. As a control, cells were also treated with diABZI c3 alone.

STING [4] = biological target: T2, STING; assay: Inhibition of STING-agonist-induced IFN-β and CXCL10 release by Compounds A9 and A11; format: cell-based; parameters: host or cells: HFF-1 human foreskin fibroblasts; details: 1 to 2 hours prior to, simultaneously with, or 15 minutes after diABZI c3
Procedure: HFF-1 cells were also assessed for inhibition of STING-agonist-induced IFN-β and CXCL10 release in cells treated with Compounds A9 and A11. […] In contrast, pre-treating cells for 1 to 2 hours prior to diABZI c3, simultaneous treatment with A9 and diABZI c3, or pre-treating cells for 15 minutes with diABZI c3 followed by A9 treatment led to a decrease in the IFN media concentration to ~100 U/mL. […] In contrast, cells pre-treated for 1 to 2 hours prior to diABZI c3, simultaneous treatment with A9 and diABZI c3, or pre-treating cells for 15 minutes with diABZI c3 followed by A9 treatment led to a decrease in the CXCL10 media concentration to […] (Figure 9B, unfiled bars).
In contrast, pre-treating cells for 1 to 2 hours prior to diABZI c3, simultaneous treatment with A11 and diABZI c3, or pre-treating cells for 15 minutes with diABZI c3 followed by A11 treatment led to a decrease in the IFN media concentration to -10 - 20 U/mL. […] In contrast, cells pre-treated for 1 to 2 hours prior to diABZI c3, simultaneous treatment with A11 and diABZI c3, or pre-treating cells for 15 minutes with diABZI c3 followed by A11 treatment led to a decrease in the CXCL10 media concentration to -10 - 20 pg/mL (Figure 9B; filled bars).

T2 sequence (Q86WV6 whole entry, the tested form may be a part): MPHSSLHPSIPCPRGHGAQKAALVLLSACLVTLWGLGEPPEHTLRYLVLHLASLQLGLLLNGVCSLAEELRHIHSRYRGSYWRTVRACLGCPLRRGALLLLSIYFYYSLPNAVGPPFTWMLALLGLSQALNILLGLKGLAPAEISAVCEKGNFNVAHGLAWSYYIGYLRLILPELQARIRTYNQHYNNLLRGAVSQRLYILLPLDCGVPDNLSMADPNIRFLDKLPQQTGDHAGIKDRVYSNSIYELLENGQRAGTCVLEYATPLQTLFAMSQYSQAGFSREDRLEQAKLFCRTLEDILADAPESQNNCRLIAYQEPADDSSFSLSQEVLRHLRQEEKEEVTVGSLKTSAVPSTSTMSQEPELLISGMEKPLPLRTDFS
T1 sequence (Q86WV6 155-379): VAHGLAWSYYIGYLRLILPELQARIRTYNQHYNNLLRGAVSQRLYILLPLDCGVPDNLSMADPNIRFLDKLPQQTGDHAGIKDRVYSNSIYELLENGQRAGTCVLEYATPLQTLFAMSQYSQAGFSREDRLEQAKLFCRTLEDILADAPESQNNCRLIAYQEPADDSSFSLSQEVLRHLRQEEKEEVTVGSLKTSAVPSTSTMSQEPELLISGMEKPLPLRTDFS

## CCn1nc(C)cc1C(=O)N=c1n(C)c2cc(C(N)=O)ccc2n1CCC(CCn1c(=NC(=O)c2cc(C)nn2CC)n(C)c2cc(C(N)=O)ccc21)OCC(=O)NCCOCCOCCOCCOCC(=O)N[C@H](C(=O)N1C[C@H](O)C[C@H]1C(=O)NCc1ccc(-c2scnc2C)cc1)C(C)(C)C (some centres unmarked) [Example 5]
[1]
  IC50: < 30 nM
[2]
  IC50: 2.4 nM

## CCn1nc(C)cc1C(=O)N=c1n(C)c2cc(C(N)=O)ccc2n1CCC(CCn1c(=NC(=O)c2cc(C)nn2CC)n(C)c2cc(C(N)=O)ccc21)OCC(=O)N1CCc2cc(OC)ccc2C1 (centres unmarked) [Example A9, 1-(5-{5-Carbamoyl-2-[(1-ethyl-3-methyl-5-pyrazolyl)carbonylimino]-3-methyl-2,3-dihydro-1H-1,3-benzimidazol-1-yl}-3-[2-(6-methoxy-1,2,3,4-tetrahydro-2-isoquinolyl)-2-oxoethoxy]pentyl)-2-[(1-ethyl-3-methyl-5-pyrazolyl)carbonylimino]-3-methyl-2,3-dihydro-1H-1,3-benzimidazole-5-carboxamide]
STING [3]
  LC3B lipidation: reduced LC3B lipidation
  P-STING intensity (activation of STING): reduced intensity of P-STING
  P-TBK1 intensity: reduced P-TBK1 intensity
STING [4]; 5 µM
  IFN media concentration: ~ 100 U/mL
STING [4]; A9 5 µM
  CXCL10 media concentration: ~ 30 U/mL

## CCn1nc(C)cc1C(=O)N=c1n(C)c2cc(C(N)=O)ccc2n1CCC(CCn1c(=NC(=O)c2cc(C)nn2CC)n(C)c2cc(C(N)=O)ccc21)OCC(=O)NCCOCCOCCOCCNc1cccc2c1C(=O)N(C1CCC(=O)NC1=O)C2=O (centres unmarked) [Example 1, 1-[3-({N-2-[2-(2-{2-[2-(2,6-Dioxo-3-piperidyl)-1,3-dioxo-4-isoindolinylamino]ethoxy}ethoxy)ethoxy]ethylcarbamoyl}methoxy)-5-{5-carbamoyl-2-[(1-ethyl-3-methyl-5-pyrazolyl)carbonylimino]-3-methyl-2,3-dihydro-1H-1,3-benzimidazol-1-yl}pentyl]-2-[(1-ethyl-3-methyl-5-pyrazolyl)carbonylimino]-3-methyl-2,3-dihydro-1H-1 ,3-benzimidazole-5-carboxamide]
[1]
  IC50: < 30 nM

## CCn1nc(C)cc1C(=O)N=c1n(C)c2cc(C(N)=O)ccc2n1CCC(CCn1c(=NC(=O)c2cc(C)nn2CC)n(C)c2cc(C(N)=O)ccc21)OCC(=O)NCCOCCOCCOCCOCCNc1cccc2c1C(=O)N(C1CCC(=O)NC1=O)C2=O (centres unmarked) [Example 29, 1-{3-[(N-2-{2-[2-(2-{2-[2-(2,6-Dioxo-3-piperidyl)-1,3-dioxo-4-isoindolinylamino]ethoxy}ethoxy)ethoxy]ethoxy}ethylcarbamoyl)methoxy]-5-{5-carbamoyl-2-[(1-ethyl-3-methyl-5-pyrazolyl)carbonylimino]-3-methyl-2,3-dihydro-1H-1 ,3-benzimidazol-1-yl}pentyl}-2-[(1-ethyl-3-methyl-5-pyrazolyl)carbonylimino]-3-methyl-2,3-dihydro-1H-1,3-benzimidazole-5-carboxamide]
[1]
  IC50: < 30 nM
[2]
  IC50: 1.8 nM

## CCn1nc(C)cc1C(=O)N=c1n(C)c2cc(C(N)=O)ccc2n1CCC(CCn1c(=NC(=O)c2cc(C)nn2CC)n(C)c2cc(C(N)=O)ccc21)OCC(=O)NCCOCCOCCOCC(=O)N[C@H](C(=O)N1C[C@H](O)C[C@H]1C(=O)NCc1ccc(-c2scnc2C)cc1)C(C)(C)C (some centres unmarked) [Example 28]
[1]
  IC50: < 30 nM

Reference: patent publication EP4663632A1, “COMPOUNDS USEFUL FOR THE MODULATION OF THE ACTIVITY OF STING” (Sulis Therapeutics ApS, priority 2024, dated 2025)
